Measured values taken from publication PMC10914731, “Homo-BacPROTAC-induced degradation of ClpC1 as a strategy against drug-resistant mycobacteria” (Nature Communications, 2024).
In brackets after ≈: the same amount, converted by molar mass. Several values for one entry are separate records, joined by “and”; a condition that tells them apart may be missing. Identical values can stand only once. Like-named read-outs stand apart in the source and are kept apart here.

Assays:
Salmonella typhimurium = experiment: MIC ESKAPES panel, Salmonella typhimurium; assay type: cell-based; conditions: Salmonella enterica, TYPHIMURIUM
Experimental: (§1) Minimum inhibitory concentration (MIC) against ESKAPES panel of Gram positive and Gram negative pathogens (Enterococcus faecium, Staphylococcus aureus, Klebsiella pneumoniae, Acinetobacter baumannii, Pseudomonas aeruginosa, Enterobacter cloacae and Salmonella typhimurium [ESKAPES panel]) were determined at the FNDR by the standard broth dilution method [CLSI, M100]. […] Mueller Hinton broth (MHB) medium was used to grow ESKAPES panel strains. The individual cultures were added as 200 μL (inoculum of 3–7 × 10^5 cfu/ml) to the respective assay plates in each well to all columns, except the media control (200 μL of medium). […] The assay plates were incubated at 37 °C, and the results were noted on the 2nd day as turbidometric readout. The clear wells indicated inhibition of growth, while the turbid wells indicated uninhibited growth.

Mtb # 11291 = experiment: microbe, parasite or virus in culture; assay type: cell-based; conditions: for MIC: read-out: MIC Mtb # 11291
Enterobacter cloacae = experiment: MIC ESKAPES panel, Enterobacter cloacae; assay type: cell-based; conditions: Enterobacter cloacae
Experimental: as §1

[1] = test system: M. tuberculosis H37Rv (ATCC 27294); experiment: microbe, parasite or virus in culture; assay type: cell-based
Msm 607 = experiment: microbe, parasite or virus in culture; assay type: cell-based
Mycobacterium abscessus = experiment: microbe, parasite or virus in culture; assay type: cell-based
[2] = test system: Mtb (katG del) ATCC 35822; experiment: microbe, parasite or virus in culture; assay type: cell-based
Mycobacterium avium = experiment: microbe, parasite or virus in culture; assay type: cell-based
Mtb # 8673 = experiment: microbe, parasite or virus in culture; assay type: cell-based
Msm 700084 = experiment: microbe, parasite or virus in culture; assay type: cell-based; conditions: Mycolicibacterium smegmatis, 700084; read-out: MIC Msm 700084
[3] = Microsomal stability, human; assay type: in vitro ADME
Outline: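 Steps: incubate compound at 1 µmol/l with liver microsomes (0.5 mg/ml) plus 1 mM NADPH in pH 7.5 Tris-HCl buffer containing MgCl2 at 37 °C; stop aliquots over time with acetonitrile; centrifuge and measure remaining compound by LC-MS/MS; fit first-order decay and convert half-life to %Qh.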

in vitro = conditions: human; for Papp A→B: apical to basolateral
Outline: (§2)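 Values are bidirectional Caco-2 apparent permeabilities, P(A−B) and P(B−A), given in 10^-6 cm s-1. The efflux ratio divides P(B−A) by P(A−B), and intrinsic permeability averages the two directions.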

Caco-2 monolayers = experiment: in vitro; conditions: mean value of P(A−B) and P(B−A)
Outline: as §2

[4] = target: His6-tagged ClpC1-NTD substrate, M. smegmatis ClpC1P1P2 (UniProt A0R574+P9WPC9); experiment: biochemical; assay type: biochemical; conditions: Msm
[5] = target: ClpC1 NTD protein (M. tuberculosis) (Mycobacterium tuberculosis, UniProt P9WPC9); experiment: biochemical; assay type: binding
[6] = Gram negative, n = 3 well replicates
[7] = Gram-Negative Bacteria, replicates 1-3
[8] = Mycobacterium tuberculosis, mean, n = 2 well replicates
[9] = Mycobacterium tuberculosis, single well replicates
[10] = Experiment 2, three replicate columns

Chain of ClpC1 NTD protein (M. tuberculosis) (P9WPC9 1-156, looked up, natural form): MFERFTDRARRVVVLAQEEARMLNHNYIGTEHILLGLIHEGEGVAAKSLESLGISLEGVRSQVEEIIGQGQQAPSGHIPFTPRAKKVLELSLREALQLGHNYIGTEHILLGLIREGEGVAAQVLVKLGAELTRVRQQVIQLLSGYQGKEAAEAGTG
Chain of His6-tagged ClpC1-NTD substrate, M. smegmatis ClpC1P1P2 (P9WPC9 1-156, looked up, natural form): as above
Chain of His6-tagged ClpC1-NTD substrate, M. smegmatis ClpC1P1P2 (A0R574 whole entry): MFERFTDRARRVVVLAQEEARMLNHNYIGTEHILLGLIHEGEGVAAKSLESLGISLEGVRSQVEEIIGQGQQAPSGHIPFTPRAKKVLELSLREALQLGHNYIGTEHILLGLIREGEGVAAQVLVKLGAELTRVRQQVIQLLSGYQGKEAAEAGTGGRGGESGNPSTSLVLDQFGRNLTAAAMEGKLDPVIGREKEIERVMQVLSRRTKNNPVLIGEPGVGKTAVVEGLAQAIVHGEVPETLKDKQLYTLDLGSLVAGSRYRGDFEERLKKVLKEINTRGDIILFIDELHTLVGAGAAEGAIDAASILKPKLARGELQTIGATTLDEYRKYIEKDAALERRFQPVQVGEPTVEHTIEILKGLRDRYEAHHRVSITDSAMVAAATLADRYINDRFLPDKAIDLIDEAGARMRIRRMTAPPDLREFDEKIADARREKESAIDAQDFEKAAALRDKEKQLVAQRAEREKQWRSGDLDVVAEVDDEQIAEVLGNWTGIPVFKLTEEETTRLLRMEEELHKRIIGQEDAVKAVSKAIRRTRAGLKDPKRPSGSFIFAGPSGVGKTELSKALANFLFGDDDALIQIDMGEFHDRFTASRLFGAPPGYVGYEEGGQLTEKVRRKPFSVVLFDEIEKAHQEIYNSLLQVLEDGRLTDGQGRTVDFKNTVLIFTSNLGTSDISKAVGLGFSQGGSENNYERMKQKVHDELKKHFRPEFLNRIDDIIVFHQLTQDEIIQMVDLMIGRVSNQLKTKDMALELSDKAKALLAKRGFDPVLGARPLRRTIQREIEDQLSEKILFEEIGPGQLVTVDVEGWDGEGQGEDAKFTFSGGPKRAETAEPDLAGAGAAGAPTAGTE

In the case of `COc1c(N2C[C@@H]3CCCN[C@@H]3C2)c(F)cc2c(=O)c(C(=O)O)cn(C3CC3)c12` [Moxifloxacin, reference compound], the MIC (Salmonella typhimurium; [6]) is reported as 0.6 µM (≈ 0.241 µg/mL), the MIC (Salmonella typhimurium; [7]) is reported as 0.62 µM and 0.25 µg/mL and the MIC (Mtb # 11291; [8]) is reported as 0.2 µM (≈ 0.0803 µg/mL). For the same molecule, the MIC (Mtb # 11291; [9]) was 0.24 µM (≈ 0.0963 µg/mL), the “MIC Mtb # 11291” value (Mtb # 11291; single well replicates) was 0.10 µg/mL (≈ 0.249 µM) and the MIC (Mtb # 11291; single well replicates) was 0.24 µM (≈ 0.0963 µg/mL). For the same molecule, the MIC (Enterobacter cloacae; [6]) was 0.3 µM (≈ 0.12 µg/mL), the MIC (Enterobacter cloacae; [7]) was 0.31 µM and 0.125 µg/mL and the MIC ([1]; M. tuberculosis H37Rv 27294, single well replicates, read-out: MIC) was 0.16 µM (≈ 0.0642 µg/mL). The MIC ([1]; Mycobacterium tuberculosis, M. tuberculosis H37Rv 27294, single well replicates, read-out: MIC) was 0.16 µM (≈ 0.0642 µg/mL), the MIC ([1]; Mycobacterium tuberculosis, Mtb H37Rv, mean ± SD, n = 3 well replicates, read-out: MIC) was 0.2 µM (≈ 0.0803 µg/mL) and the MIC ([1]; Mycobacterium tuberculosis, Set 1, read-out: MIC (Mtb H37Rv) Set 1) was 0.07 µM and 0.03 µg/mL. For the same molecule, the MIC ([1]; Mycobacterium tuberculosis, Set 2, read-out: MIC (Mtb H37Rv) Set 2) was 0.15 µM and 0.06 µg/mL, the MIC ([1]; Mycobacterium tuberculosis, Set 3, done at a different day than Set 1 and Set 2, read-out: MIC (Mtb H37Rv) Set 3) was 0.07 µM and 0.03 µg/mL and the MIC ([1]; Mycobacterium tuberculosis, individual example (Supplementary Table 11), read-out: MIC Mtb H37Rv) was 0.1 µM and 0.03 µg/mL. For the same molecule, the MIC ([1]; Mycobacterium tuberculosis, mean of 3 experiments +/- SD, unit taken from the sets above in the same table, read-out: MIC data (Mtb H37Rv) (+/- SD)) was 0.1 µM and 0.04 µg/mL, the MIC (Msm 607; Mycolicibacterium smegmatis, 607, read-out: MIC Msm #607, individual example (Supplementary Table 11)) was 0.1 µM and 0.1 µg/mL and the MIC (Msm 607; Mycolicibacterium smegmatis, ATCC607, Set-3, done at a different day than Set 1 and Set 2, read-out: MIC (Msm ATCC607) Set-3) was 0.15 µM and 0.06 µg/mL. The MIC (Msm 607; Mycolicibacterium smegmatis, ATCC607, mean of 3 experiments ± SD, read-out: MIC including standard deviations (Msm ATCC607)) was 0.015 µM and 0.06 µg/mL, the MIC (Msm 607; Mycolicibacterium smegmatis, ATCC607, read-out: MIC (Msm ATCC607) Set-1) was 0.15 µM and 0.06 µg/mL and the MIC (Msm 607; Mycolicibacterium smegmatis, ATCC607, read-out: MIC (Msm ATCC607) Set-2) was 0.15 µM and 0.06 µg/mL. The “MIC (µg/ml) Mycobacterium abscessus” value (Mycobacterium abscessus; [10]) was 1 µg/mL (≈ 2.49 µM), the MIC (Mycobacterium abscessus; Experiment 2, three replicate columns, read-out: MIC (µM) Mycobacterium abscessus) was 2.49 µM and the MIC (Mycobacterium abscessus; Mycobacteroides abscessus, Experiment 1, read-out: MIC Mycobacterium abscessus) was 2.49 µM and 1 µg/mL. For the same molecule, the MIC (Mycobacterium abscessus; Mycobacteroides abscessus, Experiment 2, three replicate columns, read-out: MIC (µM) Mycobacterium abscessus) was 2.49 µM, the MIC (Mycobacterium abscessus; Mycobacteroides abscessus, Experiment 2, three replicate columns, read-out: MIC (µg/ml) Mycobacterium abscessus) was 1 µg/mL and the MIC (Mycobacterium abscessus; Mycobacteroides abscessus, mean ± SD, read-out: MIC Mycobacterium abscessus) was 2.5 µM. It also gave an MIC ([2]; M. tuberculosis ATCC 35822, single well replicates) of 0.31 µM (≈ 0.124 µg/mL), an MIC ([2]; Mycobacterium tuberculosis, ATCC35822, M. tuberculosis ATCC 35822, single well replicates) of 0.31 µM (≈ 0.124 µg/mL) and an MIC ([2]; Mycobacterium tuberculosis, ATCC35822, Mtb (katG del) ATCC 35822, mean ± SD, n = 3 well replicates) of 0.3 µM (≈ 0.12 µg/mL). For the same molecule, the “MIC (µg/ml) Mycobacterium avium” value (Mycobacterium avium; [10]) was 1 µg/mL (≈ 2.49 µM), the MIC (Mycobacterium avium; Experiment 2, three replicate columns, read-out: MIC (µM) Mycobacterium avium) was 2.49 µM and the MIC (Mycobacterium avium; Mycobacterium avium, Experiment 1, read-out: MIC Mycobacterium avium) was 2.49 µM and 1 µg/mL. It also gave an MIC (Mycobacterium avium; Mycobacterium avium, Experiment 2, three replicate columns, read-out: MIC (µM) Mycobacterium avium) of 2.49 µM, an MIC (Mycobacterium avium; Mycobacterium avium, Experiment 2, three replicate columns, read-out: MIC (µg/ml) Mycobacterium avium) of 1 µg/mL and an MIC (Mycobacterium avium; Mycobacterium avium, mean ± SD, read-out: MIC Mycobacterium avium) of 2.5 µM. For the same molecule, the MIC (Mtb # 8673; [8]) was 0.1 µM and 0.1 µg/mL, the MIC (Mtb # 8673; [9]) was 0.15 µM and 0.06 µg/mL and the MIC (Mtb # 8673; single well replicates) was 0.15 µM (≈ 0.0602 µg/mL). The “MIC Mtb # 8673” value (Mtb # 8673; single well replicates) was 0.06 µg/mL (≈ 0.149 µM).
For `CO[C@H](c1ccccc1)[C@@H]1NC(=O)[C@H](C)NC(=O)[C@H](C[C@@H](C)CO)N(C)C(=O)[C@H](Cc2cn(Cc3cn(CCOCCn4cc(Cn5cc(C[C@@H]6NC(=O)[C@H](C(C)C)NC(=O)[C@H](CC(C)C)N(C)C(=O)[C@H](C(C)C)NC(=O)[C@H]([C@H](OC)c7ccccc7)NC(=O)[C@H](C)NC(=O)[C@H](C[C@@H](C)CO)N(C)C6=O)c6ccccc65)nn4)nn3)c3ccccc23)NC(=O)[C@H](C(C)C)NC(=O)[C@H](CC(C)C)N(C)C(=O)[C@H](C(C)C)NC1=O` [Compound 6], the MIC (Msm 700084) was 20.8 ± 15.1 µM (≈ 42.4 µg/mL), the “Microsomal Stability Human QH” value ([3]; Human) was 69.600% and the “Microsomal Stability Human” value ([3]; clearance in microsomes) was 70 %Qh. It also gave a Papp A→B (in vitro; Caco-2, CACO permeability PEAB) of under 2.6 ×10⁻⁶ cm/s, a Papp A→B (in vitro; Caco-2, Caco-2 permeability P (A-B)) of under 1.7 ×10⁻⁶ cm/s and a Papp B→A (in vitro; Caco-2, Caco-2 permeability P (B-A), basolateral to apical) of 2.4 ×10⁻⁶ cm/s. The “Caco-2 Int. Perm” value (Caco-2 monolayers) was 2.1 10-6 cm s-1, the MIC ([1]; Mycobacterium tuberculosis, M. tuberculosis H37Rv strain, read-out: MIC Mtb H37Rv Mean ± SD) was 0.4 ± 0.3 µM (≈ 0.815 µg/mL) and the MIC ([1]; Mycobacterium tuberculosis, Mtb H37Rv (Supplementary Table 2), read-out: MIC Mtb) was 0.4 ± 0.3 µM (≈ 0.815 µg/mL). The MIC ([1]; individual measurements (source data), read-out: Mtb MIC) was 0.390 µM and 0.780 µM and 0.097 µM and 0.195 µM, the MIC (Msm 607; Mycolicibacterium smegmatis, 607, read-out: MIC Msm 607) was 2.3 ± 0.9 µM (≈ 4.69 µg/mL) and the “1-Dmax, single measurements” value ([4]; Measurement 1-6) was 73.6% and 67.7% and 87.3%. It also gave a 1-Dmax (percent substrate remaining at maximal degradation) ([4]; Measurement 1-6, read-out: 1-Dmax, single measurements) of 83.7%, a 1-Dmax (percent substrate remaining at maximal degradation) ([4]; mean of the measurements, read-out: 1-Dmax, Mean) of 78% and a DC50 ([4]; mean of the measurements, read-out: DC50, Mean) of 7500 nM. The koff ([5]; SPR dissociation rate constant, read-out: koff ClpC1-NTD Mean ± SD) was 0.001 s⁻¹, the Kd ([5]; SPR, individual measurements (source data), read-out: KD ClpC1-NTD) was 1.36 nM and 1.13 nM and 0.535 nM and 0.649 nM and the “koff ClpC1-NTD” value ([5]; SPR, single independent measurements) was 0.001 s⁻¹. The Kd ([5]; SPR, read-out: ClpC1-NTD KD Mean ± SD) was 0.9 ± 0.4 nM.
